Data from US20230114241A1, “METHODS OF TREATING EPILEPSY USING THE SAME” (Trevena, Inc., priority 2019, published 2023).

How the values were obtained:
[1] = biological target: T1, human sphingosine-1-phosphate receptor 1 (S1P1) (Homo sapiens, UniProt P21453); experiment: Inhibition of cAMP production (HTRF cAMP HiRange), S1P1 CHO-K1 cells; format: cell-based; settings: for EC50: read-out: hS1P1 CAMP pEC50 (converted); for Emax: CHO-K1, efficacy normalized to maximum efficacy of fingolimod, read-out: hS1P1 CAMP SPAN
Procedure, shortened: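 Intracellular cAMP changes read by TR-FRET (HTRF HiRange, 1 h room temperature) after 30 min compound exposure at 37 °C. Cells: overnight-plated CHO-K1 stably expressing tagged human S1P1 with EA-β-arrestin2. Responses normalized to fingolimod.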
Target sequence in this assay (P21453 whole entry): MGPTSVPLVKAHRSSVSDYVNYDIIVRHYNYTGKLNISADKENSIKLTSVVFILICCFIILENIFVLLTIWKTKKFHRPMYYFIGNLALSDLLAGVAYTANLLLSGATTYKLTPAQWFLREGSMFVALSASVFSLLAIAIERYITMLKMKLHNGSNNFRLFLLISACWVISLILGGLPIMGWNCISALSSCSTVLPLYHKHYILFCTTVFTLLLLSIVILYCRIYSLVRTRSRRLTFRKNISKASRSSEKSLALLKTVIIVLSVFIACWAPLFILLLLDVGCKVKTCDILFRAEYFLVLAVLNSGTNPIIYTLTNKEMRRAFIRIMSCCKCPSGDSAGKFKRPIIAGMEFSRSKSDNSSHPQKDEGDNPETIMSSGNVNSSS

[2] = tested on: peripheral blood lymphocytes; experiment: Lymphopenia: peripheral blood lymphocyte counts, acute and chronic s.c. dosing; format: in vivo; settings: c57bl/6 mice
Experimental: Compounds were tested for changes in peripheral blood lymphocytes in C57bl/6 mice. In acute studies, animals (n=5/group) were dosed subcutaneously with test compound at a dose of 3 mg/kg. Animals were sacrificed at specific time points and […] of whole blood was collected in EDTA (K2) Eppendorf tubes. Blood was stored on ice and shipped immediately overnight delivery to Charles River Laboratories for analysis. CRL ran samples through their WBC/differential panel on an Advia 120 instrument. We received peripheral lymphocyte counts (10^3 cells/μl) for each blood sample. Treatment group means were compared to a vehicle treatment group for statistical significance. In chronic studies, animals (n=6-8/group) were dosed subcutaneously for three to seven days with test compound at doses that were at least 5-fold higher than the efficacious dose in pharmacology/behavioral assays. On the last day, animals were sacrificed 45 minutes to 6 hrs after the final dose. Whole blood was collected and analyzed as described for acute studies. […]

[3] = biological target: T1, human sphingosine-1-phosphate receptor 1 (S1P1); experiment: β-Arrestin2 recruitment assay (PathHunter), S1P1 CHO-K1 cells; format: cell-based; settings: for Emax: efficacy normalized to maximum efficacy of fingolimod, read-out: hS1P1 B-arrestin2 SPAN; for EC50: β-arrestin2 recruitment, read-out: hS1P1 B-arrestin2 pEC50 (converted)
Procedure, shortened: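 Agonist-driven β-arrestin2 recruitment measured by β-galactosidase complementation after 60 min compound exposure at 37 °C and 1 h detection at room temperature. Cells: stable CHO-K1 line expressing tagged human S1P1 with EA-β-arrestin2, plated the night before. Data expressed relative to fingolimod.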
Target sequence in this assay (P21453 whole entry): as above
Target sequence in this assay (P32121 whole entry partner): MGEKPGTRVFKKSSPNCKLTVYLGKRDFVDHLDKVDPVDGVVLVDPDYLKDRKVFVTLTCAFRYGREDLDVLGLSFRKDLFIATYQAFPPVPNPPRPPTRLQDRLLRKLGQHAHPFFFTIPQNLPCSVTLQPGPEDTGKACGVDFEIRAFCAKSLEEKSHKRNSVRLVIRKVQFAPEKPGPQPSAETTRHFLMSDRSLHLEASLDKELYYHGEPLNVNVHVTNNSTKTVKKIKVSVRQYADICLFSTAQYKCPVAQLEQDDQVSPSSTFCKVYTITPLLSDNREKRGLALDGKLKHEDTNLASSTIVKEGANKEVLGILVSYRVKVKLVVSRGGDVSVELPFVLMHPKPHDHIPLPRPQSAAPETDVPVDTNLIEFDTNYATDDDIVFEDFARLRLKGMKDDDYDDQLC

[4] = biological target: human sphingosine-1-phosphate receptor 2 (S1P2) (Homo sapiens, UniProt O95136); experiment: Selectivity: inositol monophosphate production (IP-one), S1P2 CHO-K1 cells; format: cell-based
Experimental: (§1) Cell Culturing and Assay Plating Cell lines were cultured in AssayComplete™ Media 6 (DiscoverX Corporation, Cat #: 920018GF2) at 37° C. and 5% CO2 in a humidified CO2 and temperature-controlled incubator. To begin assay plating, cells were washed with Dulbecco's phosphate buffered saline (CellGro, Cat #: 21-031-CV) and lifted from the culturing flask by incubation (37° C., 5 min) with CellStripper (Cellgro, Cat #: 25-056-CI). […] Plated cells were incubated overnight at 37° C. and 5% CO2 in a humidified CO2 and temperature-controlled incubator. Detecting Inhibition of cAMP Production
S1P2 Agonist-promoted G-protein responses were determined by measuring changes in intracellular inositol monophosphate using the IP-one TB kit (CisBio, Cat #: 62IPAPEJ) based on time-resolved fluorescence resonance energy transfer (TR-FRET) technology. AssayComplete™ Cell Plating 2 Reagent was removed and replaced with 1× IP-one stimulation buffer (as per manufacturer's instructions) along with test or control compounds at the desired concentrations.
Following a 60-minute incubation at 37° C. and 5% CO2 in a humidified CO2 and temperature-controlled incubator, the components of the IP-one TB kit were added as per the manufacturer's instructions. After an hour incubation at room temperature, plates were analyzed by a BMG PheraStar microplate reader.
(§2) These values are normalized to fimgolimod, a known agonist of the sphingosine-1-phosphate 3 and 5 receptor or CYM5520, a known agonist of the sphingosine-1-phosphate 2 receptor. The tables also include potency values (pEC50) for modulating discrete receptor-mediated activities (inhibition of cAMP production or inositol monophosphate accumulation).

[5] = biological target: human sphingosine-1-phosphate receptor 3 (S1P3) (Homo sapiens, UniProt Q99500); experiment: Selectivity: inhibition of cAMP production (HTRF), S1P3 CHO-K1 cells; format: cell-based
Experimental: as §1
S1P3 and S1P5 Agonist-promoted G-protein responses were determined by measuring changes in intracellular cAMP using the HTRF® cAMP HiRange kit (CisBio, Cat #: 62AM6PEJ) based on time-resolved fluorescence resonance energy transfer (TR-FRET) technology. […] Following a 30-minute room temperature incubation the components of the cAMP HiRange kit were added as per the manufacturer's instructions. After an hour incubation at room temperature, plates were analyzed by a BMG PheraStar microplate reader.
as §2

[6] = inhibition of cAMP production, potency
[7] = CHO-K1, β-arrestin2 recruitment
[8] = inhibition of cAMP production, S1P1

human sphingosine-1-phosphate receptor 3 (S1P3), sequence (Q99500 whole entry): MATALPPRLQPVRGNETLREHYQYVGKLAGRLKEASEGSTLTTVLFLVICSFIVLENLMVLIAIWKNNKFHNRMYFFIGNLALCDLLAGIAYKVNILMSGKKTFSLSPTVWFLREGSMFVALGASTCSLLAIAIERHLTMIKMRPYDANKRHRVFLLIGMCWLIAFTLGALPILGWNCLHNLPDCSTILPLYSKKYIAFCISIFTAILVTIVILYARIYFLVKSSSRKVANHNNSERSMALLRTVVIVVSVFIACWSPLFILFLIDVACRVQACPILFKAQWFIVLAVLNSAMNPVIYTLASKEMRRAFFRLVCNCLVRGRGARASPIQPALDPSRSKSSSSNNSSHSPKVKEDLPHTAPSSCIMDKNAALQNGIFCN
human sphingosine-1-phosphate receptor 2 (S1P2), sequence (O95136 whole entry): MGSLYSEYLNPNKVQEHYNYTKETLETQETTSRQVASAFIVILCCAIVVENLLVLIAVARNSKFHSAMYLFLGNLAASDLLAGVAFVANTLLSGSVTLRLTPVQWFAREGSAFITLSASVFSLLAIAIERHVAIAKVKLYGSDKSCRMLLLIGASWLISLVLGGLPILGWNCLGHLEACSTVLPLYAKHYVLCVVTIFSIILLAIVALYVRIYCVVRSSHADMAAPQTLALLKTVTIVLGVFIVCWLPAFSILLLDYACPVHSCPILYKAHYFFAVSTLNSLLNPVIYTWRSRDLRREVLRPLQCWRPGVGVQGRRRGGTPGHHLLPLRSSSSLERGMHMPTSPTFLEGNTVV

SMILES | EC50 [1, 6] | Lymphopenia effect (peripheral blood lymphocytes) ([2]; 6 mg/kg sc, 7 days) | Emax [3, 7] | Emax ([1]; inhibition of cAMP production) | also measured
Cc1cnccc1-c1nc(-c2ccc3c(c2)nnn3C(C)C)no1 [Compound 8, 3-(1-isopropyl-1H-benzo[d][1,2,3]triazol-5-yl)-5-(3-methylpyridin-4-yl)-1,2,4-oxadiazole] | > 316 nM | no change: 6 mg/kg, 7 days |  |  | 
COc1cccc(-c2noc(-c3ccc4c(c3)nnn4C(C)C)n2)n1 [Compound 19, 5-[3-(6-methoxypyridin-2-yl)-1,2,4-oxadiazol-5-yl]-1-(propan-2-yl)-1H-1,2,3-benzotriazole] | > 316 nM | no change: 6 mg/kg, 7 days | < 75% | < 75% | EC50 ([3]; potency): < 10 µM
COc1ccc(-c2noc(-c3ccc4c(c3)nnn4C(C)C)n2)c(C)c1 [Compound 55, 5-(1-isopropyl-1H-benzo[d][1,2,3]triazol-5-yl)-3-(4-methoxy-2-methylphenyl)-1,2,4-oxadiazole] | < 316 nM | no change: 6 mg/kg, 7 days | > 75% | > 75% | EC50 ([3]; potency): < 10 µM
Cc1ccccc1-c1noc(-c2ccc3c(c2)nnn3C(C)(C)C)n1 [Compound 59, 1-tert-butyl-5-[3-(2-methylphenyl)-1,2,4-oxadiazol-5-yl]-1H-1,2,3-benzotriazole] | < 316 nM | no change: 6 mg/kg, 7 days | > 75% | > 75% | EC50 ([3]; potency): < 10 µM
Cc1ccccc1-c1noc(-c2ccc3c(c2)nnn3CC(C)C)n1 [Compound 96, 5-[3-(2-methylphenyl)-1,2,4-oxadiazol-5-yl]-1-(2-methylpropyl)-1H-1,2,3-benzotriazole] | < 316 nM | no change: 6 mg/kg, 7 days |  |  | 
CCC1(CC)CC(=O)c2cc(-c3nc(-c4cccnc4)no3)ccc2O1 [Compound 103, 2,2-diethyl-6-[3-(pyridin-3-yl)-1,2,4-oxadiazol-5-yl]-3,4-dihydro-2H-1-benzopyran-4-one] | < 316 nM | no change: 6 mg/kg, 7 days |  |  | 
Cc1cnccc1-c1nc(-c2ccc3c(ccn3C(C)C)c2)no1 [Compound 142, 3-(1-isopropyl-1H-indol-5-yl)-5-(3-methylpyridin-4-yl)-1,2,4-oxadiazole] | < 316 nM | no change: 6 mg/kg, 7 days |  |  | 
CCC1(CC)CC(=O)c2cc(-c3nc(-c4cccnc4OC)no3)ccc2O1 [Compound 147, 2,2-diethyl-6-(3-(2-methoxypyridin-3-yl)-1,2,4-oxadiazol-5-yl)chroman-4-one] | < 316 nM | no change: 6 mg/kg, 7 days |  |  | 
Cc1ccsc1-c1noc(-c2ccc3c(c2)nnn3C(C)C)n1 [Compound 169, 5-[3-(3-methyl-thiophen-2-yl)-1,2,4-oxadiazol-5-yl]-1-(propan-2-yl)-1H-1,2,3-benzotriazole] | < 316 nM | no change: 6 mg/kg, 7 days | > 75% | > 75% | EC50 ([3]; potency): < 10 µM
Cc1cnc(-c2nc(-c3ccc4c(c3)nnn4C(C)C)no2)cn1 [Compound 234, 3-(1-isopropyl-1H-benzo[d][1,2,3]triazol-5-yl)-5-(5-methyl-pyrazin-2-yl)-1,2,4-oxadiazole] | > 316 nM | no change: 6 mg/kg, 7 days | < 75% | < 75% | EC50 ([3]; potency): > 10 µM
Cc1ccccc1-c1noc(-c2ccc3c(c2)nnn3C(C)C)n1 [Compound 293, 5-[3-(2-methylphenyl)-1,2,4-oxadiazol-5-yl]-1-(propan-2-yl)-1H-1,2,3-benzotriazole] | < 316 nM | no change: 6 mg/kg, 7 days |  |  | 
CC(F)(F)CNc1ccc(-c2nnc(-c3ccc4[nH]ncc4c3)o2)cc1C#N [Compound 355, 2-[(2,2-difluoro-propyl)amino]-5-[5-(1H-indazol-5-yl)-1,3,4-oxadiazol-2-yl]benzonitrile] | < 316 nM | no change: 6 mg/kg, 7 days | > 75% | > 75% | 
CC(C)Nc1ccc(-c2nnc(-c3ccc4[nH]cnc4c3)o2)cc1C#N [Compound 356, 5-[5-(1H-1,3-benzodiazol-5-yl)-1,3,4-oxadiazol-2-yl]-2-[(propan-2-yl)amino]benzonitrile] | < 316 nM | no change: 6 mg/kg, 7 days |  |  | 
CN1C(=O)CCc2cc(-c3nc(-c4cccnc4)no3)ccc21 [Compound 384, 1-methyl-6-[3-(pyridin-3-yl)-1,2,4-oxadiazol-5-yl]-1,2,3,4-tetrahydroquinolin-2-one] |  |  |  |  | Emax ([3]; CHO-K1): < 75%; EC50 ([3]; S1P1): > 10 µM; Emax [1]: > 75%; EC50 [1, 8]: > 316 nM; Lymphopenia effect (peripheral blood lymphocytes) ([2]; 3 mg/kg sc, 45 min and 2 hr): no change: 3 mg/kg; 45 min and 2 hr
N#Cc1cc(-c2nc(-c3ccc4oc(=O)[nH]c4c3)no2)ccc1NCC1CC1 [Compound 423, 2-((cyclopropyl-methyl)amino)-5-(3-(2-oxo-2,3-dihydrobenzo[d]oxazol-5-yl)-1,2,4-oxadiazol-5-yl)benzonitrile] |  | no change: 6 mg/kg, 7 days |  |  | Emax ([3]; CHO-K1): > 75%; EC50 ([3]; S1P1): < 10 µM; Emax [1]: > 75%; EC50 [1, 8]: < 316 nM; Emax ([4]; CHO-K1, efficacy normalized to maximal efficacy of CYM5520, read-out: hS1P2 IP-one SPAN): < 50%; EC50 ([4]; inositol monophosphate accumulation, read-out: hS1P2 IP-one pEC50 (converted)): < 10 µM; Emax ([5]; CHO-K1, efficacy normalized to maximal efficacy of fimgolimod, read-out: hS1P3 cAMP SPAN): < 50%; EC50 ([5]; inhibition of cAMP production, read-out: hS1P3 cAMP pEC50 (converted)): < 10 µM
CC(C)n1nnc2cc(-c3nc(-c4ccncc4C(F)(F)F)no3)ccc21 [Compound 455, 1-(propan-2-yl)-5-{3-[3-(trifluoromethyl)pyridin-4-yl]-1,2,4-oxadiazol-5-yl}-1H-1,2,3-benzotriazole] |  | no change: 6 mg/kg, 7 days |  |  | EC50 [1, 8]: < 316 nM
CC(F)(F)CNc1ccc(-c2nnc(-c3ccc4[nH]cnc4c3)o2)cc1C#N [Compound 520, 5-[5-(1H-1,3-benzodiazol-5-yl)-1,3,4-oxadiazol-2-yl]-2-[(2,2-difluoro-propyl)amino]benzonitrile] |  | no change: 6 mg/kg, 7 days |  |  | EC50 [1, 8]: < 316 nM
CCC1(CC)CC(=O)c2cc(-c3nc(-c4ccc(NC(C)=O)cc4OC)no3)ccc2O1 [Compound 531, N-{4-[5-(2,2-diethyl-4-oxo-3,4-dihydro-2H-1-benzopyran-6-yl)-1,2,4-oxadiazol-3-yl]-3-methoxyphenyl} acetamide] |  | no change: 6 mg/kg, 7 days |  |  | Emax ([3]; CHO-K1): > 75%; EC50 ([3]; S1P1): < 10 µM; Emax [1]: > 75%; EC50 [1, 8]: < 316 nM
